# Source: patent publication US8519149B2, “Tricyclic compounds as mPGES-1 inhibitors” (Glenmark Pharmaceuticals S.A., priority 2010, dated 2013)
# Biological target: T1, Recombinant human mPGES-1 (Homo sapiens, UniProt O14684)
# T1 sequence (O14684 1-152): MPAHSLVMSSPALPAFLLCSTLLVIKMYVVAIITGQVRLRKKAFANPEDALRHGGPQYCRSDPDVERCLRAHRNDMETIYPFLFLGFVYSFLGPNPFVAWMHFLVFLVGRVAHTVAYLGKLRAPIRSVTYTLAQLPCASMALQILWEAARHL
# Test: In-vitro mPGES-1 enzyme inhibition assay (PGE2 formation from PGH2, HTRF detection)
# Assay type: biochemical
# Conditions: for inhibition at 1 µM: read-out: Percentage inhibition at 1 μM; for inhibition at 10 µM: 10 μM test compound, read-out: Percentage inhibition at 10 μM; for IC50: class symbols, selected examples
# Outline: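 Crude microsomal fractions containing recombinant human mPGES-1 (40-60 μg/mL protein) convert PGH2 to PGE2 in the presence of reduced glutathione, with 0.5% final DMSO. Reaction stopped with stannous chloride, and PGE2 measured by anti-PGE2 antibody (HTRF) detection. IC50 by nonlinear regression of % inhibition versus uninhibited enzyme control.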
# [1] = 1 μM test compound, recombinant human mPGES-1 microsomal fraction
# [2] = recombinant human mPGES-1 microsomal fraction
Compound,inhibition at 1 µM [1] [%],inhibition at 10 µM [2] [%],IC50 [nM],"Percentage inhibition at 1 μM (1 μM test compound, recombinant human mPGES-1 microsomal fraction, 1 µM) [%]"
"Cc1nc2c(o1)c(C(=O)Nc1ccc(C(C)(C)C#N)cc1)cc1nc(Nc3c(Cl)cccc3Cl)[nH]c12 [Example-190, N-[4-(2-Cyanopropan-2-yl)phenyl]-7-[(2,6-dichlorophenyl)amino]-2-methyl-8H-imidazo[4,5-e][1,3]benzoxazole-4-carboxamide]",81.2,89.5,> 100,
"Cn1c(Nc2c(F)cccc2Cl)nc2cc(C(=O)Nc3ccc(C4CC4)cc3)c3c(c21)CC(C)(C)O3 [Example-167, 2-((2-Chloro-6-fluorophenyl)amino)-N-(4-cyclopropylphenyl)-1,7,7-trimethyl-7,8-dihydro-1H-benzofuro[4,5-d]imidazole-5-carboxamide]",96.9,98.3,< 50,
"Cn1c(Nc2c(Cl)cncc2Cl)nc2cc(C(=O)Nc3ccc(F)c(C(F)(F)F)c3)c3c(c21)CC(C)(C)O3 [Example-213, 2-((3,5-Dichloropyridin-4-yl)amino)-N-(4-fluoro-3-(trifluoromethyl)phenyl)-1,7,7-trimethyl-7,8-dihydro-1H-benzofuro[4,5-d]imidazole-5-carboxamide]",96.3,97.3,,
"CCC(C)(C)NC(=O)c1cc2nc(Nc3c(Cl)cccc3Cl)[nH]c2c2c1OC(C)(C)C2 [Example-41, 2-[(2,6-Dichlorophenyl)amino]-7,7-dimethyl-N-(2-methylbutan-2-yl)-7,8-dihydro-1H-furo[3,2-e]benzimidazole-5-carboxamide]",99.2,95.7,< 50,
"CC1(C)Cc2c(c(C(=O)NN3CCCC3)cc3nc(Nc4c(Cl)cccc4Cl)[nH]c23)O1 [Example-58, 2-[(2,6-Dichlorophenyl)amino]-7,7-dimethyl-N-(pyrrolidin-1-yl)-7,8-dihydro-1H-furo[3,2-e]benzimidazole-5-carboxamide]",63.3,95.4,,
Cc1ccc(Nc2nc3cc(C(=O)Nc4ccccc4C(F)(F)F)c4c(c3[nH]2)CC(C)(C)O4)c(C)n1 [Example-106],9.35,46.2,,
"CC1(C)Cc2c(c(C(=O)NC3CCCCC3)cc3nc(Nc4c(Cl)cccc4Cl)[nH]c23)O1 [Example-7, N-Cyclohexyl-2-[(2,6-dichlorophenyl)amino]-7,7-dimethyl-7,8-dihydro-1H-furo[3,2-e]benzimidazole-5-carboxamide]",100,96.2,< 50,
CC1(C)Cc2c(c(C(=O)NNc3ccc(Br)cc3)cc3nc(Nc4c(Cl)cccc4Cl)[nH]c23)O1 [Example-74],93.4,94.7,50 to 100,
"Cc1cc2c(o1)c(C(=O)Nc1ccc(C(F)(F)F)cc1)cc1nc(Nc3c(Cl)cncc3Cl)[nH]c12 [Example-32, 2-[(3,5-Dichloropyridin-4-yl)amino]-7-methyl-N-[4-(trifluoromethyl)phenyl]-1H-furo[3,2-e]benzimidazole-5-carboxamide]",99,100,,
"CC1(C)Cc2c(c(C(=O)Nc3ccc(C(C)(C)C)cc3)cc3nc(Nc4c(F)cccc4Cl)[nH]c23)O1 [Example-114, N-(4-tert-Butylphenyl)-2-[(2-chloro-6-fluorophenyl)amino]-7,7-dimethyl-7,8-dihydro-1H-furo[3,2-e]benzimidazole-5-carboxamide]",99.4,99.1,< 50,
"CC1(C)Cc2c(c(C(=O)Nc3cc(F)c(F)cc3F)cc3nc(Nc4c(Cl)cccc4Cl)[nH]c23)O1 [Example-141, 2-((2,6-Dichlorophenyl)amino)-7,7-dimethyl-N-(2,4,5-trifluorophenyl)-7,8-dihydro-1H-benzofuro[4,5-d]imidazole-5-carboxamide]",96.4,98.6,< 50,
"CC1(C)Cc2c(c(C(=O)Nc3ccc(C(F)(F)F)nc3)cc3nc(Nc4c(Cl)cccc4Cl)[nH]c23)O1 [Example-166, 2-((2,6-Dichlorophenyl)amino)-7,7-dimethyl-N-(6-(trifluoromethyl)pyridin-3-yl)-7,8-dihydro-1H-benzofuro[4,5-d]imidazole-5-carboxamide]",97.7,99.6,,
"Cc1cccc(Cl)c1Nc1nc2cc(C(=O)Nc3cc(C4CC4)ccc3F)c3c(c2[nH]1)CC(C)(C)O3 [Example-136, 2-((2-Chloro-6-methylphenyl)amino)-N-(5-cyclopropyl-2-fluorophenyl)-7,7-dimethyl-7,8-dihydro-1H-benzofuro[4,5-d]imidazole-5-carboxamide]",89.4,96.9,< 50,
"Cc1cccc(Cl)c1Nc1nc2cc(C(=O)Nc3cccc(C(C)(F)F)c3)c3c(c2[nH]1)CC(C)(C)O3 [Example-120, 2-[(2-Chloro-6-methylphenyl)amino]-N-[3-(1,1-difluoroethyl)phenyl]-7,7-dimethyl-7,8-dihydro-1H-furo[3,2-e]benzimidazole-5-carboxamide]",90.5,99,< 50,

# Next, values leading:
inhibition at 1 µM [1] [%],inhibition at 10 µM [2] [%],IC50 [nM],"Percentage inhibition at 1 μM (1 μM test compound, recombinant human mPGES-1 microsomal fraction, 1 µM) [%]",Compound
94.4,95,< 50,,"CCCCCNC(=O)c1cc2nc(Nc3c(Cl)cncc3Cl)[nH]c2c2c1OC(C)(C)C2 [Example-4, 2-[(3,5-Dichloropyridin-4-yl)amino]-7,7-dimethyl-N-pentyl-7,8-dihydro-1H-furo[3,2-e]benzimidazole-5-carboxamide]"
80.8,89.4,< 50,,"Cc1nc2c(o1)c(C(=O)Nc1ccc(F)cc1)cc1nc(Nc3c(Cl)cccc3Cl)[nH]c12 [Example-177, 7-[(2,6-Dichlorophenyl)amino]-N-(4-fluorophenyl)-2-methyl-8H-imidazo[4,5-e][1,3]benzoxazole-4-carboxamide]"
100,92,< 50,,"CC1(C)Cc2c(c(C(=O)Nc3ccc(F)c(C(F)(F)F)c3)cc3nc(Nc4c(F)cccc4Cl)[nH]c23)O1 [Example-104, 2-[(2-Chloro-6-fluorophenyl)amino]-N-[4-fluoro-3-(trifluoromethyl)phenyl]-7,7-dimethyl-7,8-dihydro-1H-furo[3,2-e]benzimidazole-5-carboxamide]"
100,100,< 50,97.45,"CC1(C)Cc2c(c(C(=O)Nc3ccc(Br)cc3)cc3nc(Nc4c(Cl)cccc4Cl)[nH]c23)O1 [Example-11, N-(4-Bromophenyl)-2-[(2,6-dichlorophenyl)amino]-7,7-dimethyl-7,8-dihydro-1H-furo[3,2-e]benzimidazole-5-carboxamide]"
96.7,95.3,< 50,,"Cc1ccc(Cl)c(Nc2nc3cc(C(=O)Nc4ccccc4C(F)(F)F)c4c(c3[nH]2)CC(C)(C)O4)c1 [Example-97, 2-[(2-Chloro-5-methylphenyl)amino]-7,7-dimethyl-N-[2-(trifluoromethyl)phenyl]-7,8-dihydro-1H-furo[3,2-e]benzimidazole-5-carboxamide]"
94.8,95,< 50,,"CC1(C)Cc2c(c(C(=O)Nc3ccccc3C(F)(F)F)cc3nc(Nc4c(Cl)cccc4Cl)[nH]c23)O1 [Example-75, 2-[(2,6-Dichlorophenyl)amino]-7,7-dimethyl-N-[2-(trifluoromethyl)phenyl]-7,8-dihydro-1H-furo[3,2-e]benzimidazole-5-carboxamide]"
95.3,99.7,< 50,,"COCCn1c(Nc2c(Cl)cccc2Cl)nc2cc(C(=O)Nc3ccc(C(F)(F)F)cc3)c3c(c21)CC(C)(C)O3 [Example-99, 2-[(2,6-Dichlorophenyl)amino]-1-(2-methoxyethyl)-7,7-dimethyl-N-[4-(trifluoromethyl)phenyl]-7,8-dihydro-1H-furo[3,2-e]benzimidazole-5-carboxamide]"
94.3,96,< 50,,"CC(C)(C)CC(C)(C)NC(=O)c1cc2nc(Nc3c(F)cccc3Cl)[nH]c2c2c1OC(C)(C)C2 [Example-52, 2-[(2-Chloro-6-fluorophenyl)amino]-7,7-dimethyl-N-(2,4,4-trimethylpentan-2-yl)-7,8-dihydro-1H-furo[3,2-e]benzimidazole-5-carboxamide]"
93.9,96.3,< 50,,"Cc1cccc(Cl)c1Nc1nc2cc(C(=O)Nc3ccc(C(F)(F)F)cc3)c3c(c2[nH]1)CC(C)(C)O3 [Example-108, 2-[(2-Chloro-6-methylphenyl)amino]-7,7-dimethyl-N-[4-(trifluoromethyl)phenyl]-7,8-dihydro-1H-furo[3,2-e]benzimidazole-5-carboxamide]"
97.1,96.5,< 50,,"Cc1cccc(Cl)c1Nc1nc2cc(C(=O)Nc3cc(F)c(F)cc3F)c3c(c2[nH]1)CC(C)(C)O3 [Example-192, 2-((2-Chloro-6-methylphenyl)amino)-7,7-dimethyl-N-(2,4,5-trifluorophenyl)-7,8-dihydro-1H-benzofuro[4,5-d]imidazole-5-carboxamide]"
97.5,93.1,< 50,,"Cc1nc2c(o1)c(C(=O)NCC1CCCCC1)cc1nc(Nc3c(Cl)cccc3Cl)[nH]c12 [Example-183, N-(Cyclohexylmethyl)-7-[(2,6-dichlorophenyl)amino]-2-methyl-8H-imidazo[4,5-e][1,3]benzoxazole-4-carboxamide]"
